Experiments:
Experiment in all cases: Vapor test, microcup on PDA Petri plate
Settings in all cases: vapors
Aspergillus niger = test system: Aspergillus niger
Cercospora beticola = test system: Cercospora beticola
Pythium ultimum = test system: Pythium ultimum
Phytophthora palmivora = test system: Phytophthora palmivora
Rhizoctonia solani = test system: Rhizoctonia solani
Aspergillus fumigatus = test system: Aspergillus fumigatus
Geotrichum candidum = test system: Geotrichum candidum
Botrytis alli = test system: Botrytis alli

With `CCC(=O)O` [Propanoic Acid, propanoic acid] the “% inhibition, alone at 20 μl After 24 hr (C)” value (“% inhibition, alone” for short) (Aspergillus niger) was 0%, the “Alive or dead, alone at 20 μl After 24 hr (C)” value (“Alive or dead, alone” below) (Aspergillus niger) was “Alive” and the “% inhibition, alone” value (Cercospora beticola) was 75%. The “Alive or dead, alone” value (Cercospora beticola) was “Alive”, the “% inhibition, alone” value (Pythium ultimum) was 80% and the “Alive or dead, alone” value (Pythium ultimum) was “Alive”. The “% inhibition, alone” value (Phytophthora palmivora) was 100%, the “% inhibition, alone” value (Rhizoctonia solani) was 80% and the “Alive or dead, alone” value (Rhizoctonia solani) was “Alive”. The “% inhibition, alone” value (Aspergillus fumigatus) was 0%, the “Alive or dead, alone” value (Aspergillus fumigatus) was “Alive” and the “% inhibition, alone” value (Geotrichum candidum) was 0%. The “Alive or dead, alone” value (Geotrichum candidum) was “Alive”, the “% inhibition, alone” value (Botrytis alli) was 0% and the “Alive or dead, alone” value (Botrytis alli) was “Alive”.

From patent US10383332B2, “Antimicrobial compositions and related methods of use” (Jeneil Biosurfactant Company, LLC, priority 2013, dated 2019)
